The values that follow come from the PolyMetriX glass transition set.

Consider `*/C(C)=C(/*)c1ccc([Si](C)(C)C)cc1` (repeat unit), for which the glass transition temperature is -5.00 °C. For `*CC(F)(F)C(F)(F)C(F)(F)COC(=O)CCCCC(=O)O*` (repeat unit) the value was -60.50 °C; for `*CC(O)COC(=O)CCCCC(=O)OCC(O)COc1ccc(C(=O)Oc2ccc(O*)cc2)cc1` (repeat unit), 37.00 °C; for `*CCCCCC(*)C` (repeat unit), -66.00 °C.

The molecule `*CCCCCC(*)CCCCCC` (repeat unit) yielded a glass transition temperature of -76.00 °C. For `*CCCCCCC(Cl)C(*)Cl` (repeat unit) the value was -18.00 °C. As to `*CCCCCCC(c1ccc(O)cc1)C(*)c1ccc(O)cc1C` (repeat unit), the glass transition temperature was 18.00 °C. As for `*CCCCCCCC(=O)OCC1COC(*)O1` (repeat unit), the figure is -23.00 °C. `*CCCCCCCC(c1ccc(O)cc1)C(*)c1ccc(O)cc1C` (repeat unit) gave a glass transition temperature of 4.00 °C. As for `*CCCCCCCCCCCNC(=O)CCCCCCCCC(=O)N*` (repeat unit), the figure is 40.00 °C; as for `*CCCCCCCCCCOC(=O)CCCCCCC(=O)O*` (repeat unit), -22.00 °C. For `*CCCCCCCCc1nc2cc(NC(=O)CCCCC(=O)Nc3ccc4oc(*)nc4c3)ccc2o1` (repeat unit) the value was 92.00 °C; for `*CCCCCCCNC(=O)CCCCCC(=O)N*` (repeat unit), 55.00 °C; for `*CCCCCCNC(=O)CCCCCCCC1C(CCCCCCCC(=O)N*)C=CC(CCCCCC)C1CCCCCCCC` (repeat unit), -3.00 °C. As for `*CCCCCCS(=O)(=O)c1ccc(/N=N/c2ccc(N(C)CCCCCC(=O)O*)cc2)cc1` (repeat unit), the figure is 60.50 °C; as for `*CCCCOC(=O)CCCCC(=O)OCCCCOC(=O)c1ccc(C(=O)O*)cc1` (repeat unit), -20.00 °C. As to `*CCCCOC(=O)CCCCCCCC(=O)O*` (repeat unit), the glass transition temperature is -62.50 °C. For `*CCCOC(=O)CCCCC(=O)O*` (repeat unit) the value was -55.00 °C; for `*CCN(CCOC(=O)CCCCC(=O)O*)c1ccc(/C=N/N(c2ccccc2)c2ccccc2)cc1` (repeat unit), 54.00 °C. Consider `*CCNC(=O)CCCCC(=O)N*` (repeat unit), for which the glass transition temperature stood at 71.00 °C. Turning to `*CCOC(=O)CCCCCC(=O)O*` (repeat unit), the glass transition temperature is -46.00 °C. For `*CCOC(=O)CCCCCCC(=O)OCCOC(=O)c1ccc(C(=O)O*)cc1` (repeat unit) the value was -1.00 °C; for `*CCOC(=O)CCCCCCCC(=O)O*` (repeat unit), -45.00 °C; for `*CCOCCOC(=O)CCCCC(=O)O*` (repeat unit), -51.00 °C.

On to `*CCOCCOC(=O)CCCCCCC(=O)O*` (repeat unit), for which the glass transition temperature is -66.00 °C. For the molecule `*CCOCCOCCOC(=O)CCCCCC(=O)O*` (repeat unit), the glass transition temperature was -44.50 °C.

The molecule `*NC1CCC(CCC2CCC(NC(=O)CCCCCCCCC(*)=O)CC2)CC1` (repeat unit) gave a glass transition temperature of 116.00 °C.

In the case of `*Nc1ccc(-c2ccc(NC(=O)c3cc(NC(=O)c4ccncc4)cc(C(*)=O)c3)cc2)cc1` (repeat unit), the glass transition temperature worked out at 339.00 °C. As for `*Nc1ccc(CCNC(=O)CCCCC(*)=O)cc1` (repeat unit), the figure is 115.00 °C; as for `*Nc1ccc(Cc2ccc(NC(=O)CCCCCCCC(*)=O)cc2)cc1` (repeat unit), 140.00 °C; as for `*Nc1cccc(NC(=O)CCCCC(*)=O)c1` (repeat unit), 114.2 °C. For `*Nc1cccc(NC(=O)CCCCC(=O)Nc2ccc(C(=O)NC(*)=S)cc2)c1` (repeat unit) the value was 267.00 °C; for `*OC(C)CCCCC(*)=O` (repeat unit), -40.00 °C. Molecule `*OC1CCC(OC(=O)CCCCC(*)=O)CC1` (repeat unit) registered a glass transition temperature of 77.80 °C. With `*O[Si](C)(C)O[Si](C)(C)O[Si](C)(C)O[Si](C)(C)OC(C)CCCCC(*)C` (repeat unit), the glass transition temperature was -98.00 °C. As for `*O[Si](C)(C)O[Si](C)(C)O[Si](C)(C)O[Si](C)(C)O[Si](C)(C)OC(C)CCCCC(*)C` (repeat unit), the figure is -104.00 °C; as for `*Oc1c(-c2ccccc2)cc(Cc2cc(-c3ccccc3)c(OC(=O)CCCCC(*)=O)c(-c3ccccc3)c2)cc1-c1ccccc1` (repeat unit), 115.00 °C; as for `*Oc1ccc(/C(=C/c2ccc(-c3ccc(/C=C(\c4ccccc4)c4ccc(OC(=O)CCCCC(*)=O)cc4)cc3)cc2)c2ccccc2)cc1` (repeat unit), 128.00 °C.

In turn, `*Oc1ccc(C2(c3ccc(OC(=O)CCCCCCC(*)=O)cc3)c3ccccc3-c3ccccc32)cc1` (repeat unit) returned a glass transition temperature of 158.00 °C. For `*Oc1ccc(C2(c3ccc(Oc4ccc(-c5ccc(NC(=O)c6cc(C(=O)Nc7ccc(-c8ccc(*)c(C(F)(F)F)c8)cc7)cc(C(C)(C)C)c6)cc5)cc4C(F)(F)F)cc3)c3ccccc3-c3ccccc32)cc1` (repeat unit) the value was 278.00 °C; for `*Oc1ccc(NC(=O)CCCCC(=O)Nc2ccc(OC3COC4C(*)COC34)cc2)cc1` (repeat unit), 150.00 °C; for `*Oc1ccc(NC(=O)CCCCCC(=O)Nc2ccc(*)cc2)cc1` (repeat unit), 180.00 °C.

Molecule `*Oc1ccc(NC(=O)CCCCCCC(=O)Nc2ccc(*)cc2)cc1` (repeat unit) gave a glass transition temperature of 180.00 °C.

On to `*Oc1ccc(OC(=O)CCCCC(*)=O)cc1` (repeat unit), for which the glass transition temperature stood at 90.00 °C. As for `*Oc1cccc(NC(=O)CCCCCCC(=O)Nc2ccc(*)cc2)c1` (repeat unit), the figure is 140.00 °C.

`*Oc1cccc(NC(=O)CCCCCCCC(=O)Nc2ccc(*)cc2)c1` (repeat unit): the glass transition temperature is 120.00 °C.

In turn, `*c1ccc(NC(=O)CCCCC(=O)Nc2ccc(S(*)(=O)=O)cc2)cc1` (repeat unit) showed a glass transition temperature of 194.00 °C. For `*c1ccc(NC(=O)CCCCCC(=O)Nc2ccc(S(*)(=O)=O)cc2)cc1` (repeat unit) the value was 163.00 °C; for `*c1ccc(NC(=O)c2cc(NC(=O)c3ccc(OC(C)=O)cc3)cc(C(=O)Nc3ccc(-c4nnc(*)o4)cc3)c2)cc1` (repeat unit), 280.00 °C; for `*c1ccc2c(c1)C(=O)N(c1ccc(Cc3ccc(N4C(=O)c5ccc(C(C)(C)CCCCC(*)(C)C)cc5C4=O)cc3)cc1)C2=O` (repeat unit), 169.90 °C.

As to `*c1cccc(NC(=O)CCCCC(=O)Nc2cccc(S(*)(=O)=O)c2)c1` (repeat unit), the glass transition temperature came to 140.00 °C. `*c1cccc(NC(=O)CCCCCCCC(=O)Nc2cccc(S(*)(=O)=O)c2)c1` (repeat unit) came in with a glass transition temperature of 125.00 °C.
